From ChEMBL document CHEMBL1146418, “A new flavone C-glycoside and antiplatelet and vasorelaxing flavones from Gentiana arisanensis” (J Nat Prod, 1997)

Columns and labels:
Platelet [1] = assay: Inhibition of arachidonic acid-induced platelet aggregation in rabbit plasma at 300 uM preincubated 3 mins before addition of thrombin by turbidimetric method; assay type: functional, Oryctolagus cuniculus; design: scale not given: the % may be the effect or the level left
Platelet [2] = assay: Inhibition of collagen-induced platelet aggregation in rabbit plasma at 300 uM preincubated 3 mins before addition of thrombin by turbidimetric method; assay type: functional, Oryctolagus cuniculus; design: scale not given: the % may be the effect or the level left
Platelet [3] = assay: Inhibition of thrombin-induced platelet aggregation in rabbit plasma at 300 uM preincubated 3 mins before addition of thrombin by turbidimetric method; assay type: functional, Oryctolagus cuniculus; design: scale not given: the % may be the effect or the level left
Platelet [4] = assay: Inhibition of platelet activating factor-induced platelet aggregation in rabbit plasma at 300 uM preincubated 3 mins before addition of thrombin by turbidimetric method; assay type: functional, Oryctolagus cuniculus; design: scale not given: the % may be the effect or the level left
Aorta [5] = assay: Inhibition of noradrenaline-induced Wistar rat thoracic aorta phasic contraction in high K+ medium pretreated 15 mins before addition of Ca2+ and K+ relative to control
Aorta [6] = assay: Inhibition of noradrenaline-induced Wistar rat thoracic aorta phasic contraction in high K+ medium at 9 uM pretreated 15 mins before addition of Ca2+ and K+ relative to control; assay type: functional; design: scale not given: the % may be the effect or the level left
Aorta [7] = assay: Inhibition of noradrenaline-induced Wistar rat thoracic aorta tonic contraction in high K+ medium at 300 uM pretreated 15 mins before addition of Ca2+ and K+ relative to control; assay type: functional; design: scale not given: the % may be the effect or the level left
Platelet [8] = assay: Inhibition of arachidonic acid-induced platelet aggregation in rabbit plasma at 150 uM preincubated 3 mins before addition of thrombin by turbidimetric method; assay type: functional, Oryctolagus cuniculus; design: scale not given: the % may be the effect or the level left
Aorta [9] = assay: Inhibition of noradrenaline-induced Wistar rat thoracic aorta tonic contraction in high K+ medium at 9 uM pretreated 15 mins before addition of Ca2+ and K+ relative to control; assay type: functional; design: scale not given: the % may be the effect or the level left
Aorta [10] = assay: Inhibition of noradrenaline-induced Wistar rat thoracic aorta tonic contraction in high K+ medium at 90 uM pretreated 15 mins before addition of Ca2+ and K+ relative to control; assay type: functional; design: scale not given: the % may be the effect or the level left
Platelet [11] = assay: Inhibition of arachidonic acid-induced platelet aggregation in rabbit plasma at 30 uM preincubated 3 mins before addition of thrombin by turbidimetric method; assay type: functional, Oryctolagus cuniculus; design: scale not given: the % may be the effect or the level left
Platelet [12] = assay: Inhibition of arachidonic acid-induced platelet aggregation in rabbit plasma preincubated 3 mins before addition of thrombin by turbidimetric method; conditions: Oryctolagus cuniculus
Aorta [13] = assay: Inhibition of noradrenaline-induced Wistar rat thoracic aorta tonic contraction in high K+ medium pretreated 15 mins before addition of Ca2+ and K+ relative to control
Aorta [14] = assay: Inhibition of Ca2+-induced Wistar rat thoracic aorta contraction at 90 uM in high K+ medium pretreated 15 mins before addition of Ca2+ and K+ relative to control; assay type: functional; design: scale not given: the % may be the effect or the level left
Platelet [15] = assay: Inhibition of arachidonic acid-induced platelet aggregation in rabbit plasma at 15 uM preincubated 3 mins before addition of thrombin by turbidimetric method; assay type: functional, Oryctolagus cuniculus; design: scale not given: the % may be the effect or the level left
Aorta [16] = assay: Inhibition of Ca2+-induced Wistar rat thoracic aorta contraction at 30 uM in high K+ medium pretreated 15 mins before addition of Ca2+ and K+ relative to control; assay type: functional; design: scale not given: the % may be the effect or the level left
Aorta [17] = assay: Inhibition of Ca2+-induced Wistar rat thoracic aorta contraction in high K+ medium pretreated 15 mins before addition of Ca2+ and K+
Aorta [18] = assay: Inhibition of noradrenaline-induced Wistar rat thoracic aorta tonic contraction in high K+ medium at 30 uM pretreated 15 mins before addition of Ca2+ and K+ relative to control; assay type: functional; design: scale not given: the % may be the effect or the level left
Aorta [19] = assay: Inhibition of noradrenaline-induced Wistar rat thoracic aorta phasic contraction in high K+ medium at 90 uM pretreated 15 mins before addition of Ca2+ and K+ relative to control; assay type: functional; design: scale not given: the % may be the effect or the level left
Platelet [20] = assay: Inhibition of arachidonic acid-induced platelet aggregation in rabbit plasma at 60 uM preincubated 3 mins before addition of thrombin by turbidimetric method; assay type: functional, Oryctolagus cuniculus; design: scale not given: the % may be the effect or the level left
Aorta [21] = assay: Inhibition of noradrenaline-induced Wistar rat thoracic aorta phasic contraction in high K+ medium at 300 uM pretreated 15 mins before addition of Ca2+ and K+ relative to control; assay type: functional; design: scale not given: the % may be the effect or the level left
Aorta [22] = assay: Inhibition of noradrenaline-induced Wistar rat thoracic aorta phasic contraction in high K+ medium at 30 uM pretreated 15 mins before addition of Ca2+ and K+ relative to control; assay type: functional; design: scale not given: the % may be the effect or the level left
Aorta [23] = assay: Inhibition of Ca2+-induced Wistar rat thoracic aorta contraction at 300 uM in high K+ medium pretreated 15 mins before addition of Ca2+ and K+ relative to control; assay type: functional; design: scale not given: the % may be the effect or the level left
Platelet [24] = assay: Inhibition of collagen-induced platelet aggregation in rabbit plasma at 100 uM preincubated 3 mins before addition of thrombin by turbidimetric method; assay type: functional, Oryctolagus cuniculus; design: scale not given: the % may be the effect or the level left
Platelet [25] = assay: Inhibition of arachidonic acid-induced platelet aggregation in rabbit plasma at 100 uM preincubated 3 mins before addition of thrombin by turbidimetric method; assay type: functional, Oryctolagus cuniculus; design: scale not given: the % may be the effect or the level left
Aorta [26] = assay: Inhibition of Ca2+-induced Wistar rat thoracic aorta contraction at 150 uM in high K+ medium pretreated 15 mins before addition of Ca2+ and K+ relative to control; assay type: functional; design: scale not given: the % may be the effect or the level left
Aorta [27] = assay: Inhibition of noradrenaline-induced Wistar rat thoracic aorta phasic contraction in high K+ medium at 150 uM pretreated 15 mins before addition of Ca2+ and K+ relative to control; assay type: functional; design: scale not given: the % may be the effect or the level left
Aorta [28] = assay: Inhibition of noradrenaline-induced Wistar rat thoracic aorta tonic contraction in high K+ medium at 150 uM pretreated 15 mins before addition of Ca2+ and K+ relative to control; assay type: functional; design: scale not given: the % may be the effect or the level left
Platelet [29] = assay: Inhibition of platelet activating factor-induced platelet aggregation in rabbit plasma at 50 uM preincubated 3 mins before addition of thrombin by turbidimetric method; assay type: functional, Oryctolagus cuniculus; design: scale not given: the % may be the effect or the level left
Platelet [30] = assay: Inhibition of arachidonic acid-induced platelet aggregation in rabbit plasma at 50 uM preincubated 3 mins before addition of thrombin by turbidimetric method; assay type: functional, Oryctolagus cuniculus; design: scale not given: the % may be the effect or the level left
Platelet [31] = assay: Inhibition of collagen-induced platelet aggregation in rabbit plasma at 50 uM preincubated 3 mins before addition of thrombin by turbidimetric method; assay type: functional, Oryctolagus cuniculus; design: scale not given: the % may be the effect or the level left
Platelet [32] = assay: Inhibition of thrombin-induced platelet aggregation in rabbit plasma at 50 uM preincubated 3 mins before addition of thrombin by turbidimetric method; assay type: functional, Oryctolagus cuniculus; design: scale not given: the % may be the effect or the level left

`O=c1cc(-c2ccc(O)c(O)c2)oc2cc(O)c([C@@H]3O[C@H](CO[C@@H]4O[C@H](CO)[C@@H](O)[C@H](O)[C@H]4O)[C@@H](O)[C@H](O)[C@H]3O)c(O)c12` gave an Activity (Platelet [1]) of 83.3%, an Activity (Platelet [2]) of 85.4% and an Activity (Platelet [3]) of 85.7%. It also gave an Activity (Platelet [4]) of 83.5%.

Work on `O=c1cc(-c2ccc(O)c(O)c2)oc2cc(O)cc(O)c12` [LUTEOLIN] yielded an IC50 (Aorta [5]) of 68 µM, an Activity (Platelet [1]) of 0% and an Activity (Platelet [2]) of 2.8%. It also gave an Activity (Aorta [6]) of 92.8%, an Activity (Aorta [7]) of 22.9% and an Activity (Platelet [8]) of 0%. The Activity (Aorta [9]) was 99.2%, the Activity (Aorta [10]) was 32.6% and the Activity (Platelet [11]) was 53%. It also gave an IC50 (Platelet [12]) of 43.5 µM, an IC50 (Aorta [13]) of 72 µM and an Activity (Aorta [14]) of 49.9%. It also gave an Activity (Platelet [3]) of 34.7%, an Activity (Platelet [15]) of 79.2% and an Activity (Platelet [4]) of 53%. For the same molecule, the Activity (Aorta [16]) was 69.5%, the IC50 (Aorta [17]) was 156 µM and the Activity (Aorta [18]) was 52.3%. It also gave an Activity (Aorta [19]) of 29.3%, an Activity (Platelet [20]) of 20.5% and an Activity (Aorta [21]) of 14.9%. The Activity (Aorta [22]) was 64.7% and the Activity (Aorta [23]) was 28.6%.

`CC(=O)OC[C@H]1O[C@@H](OC[C@H]2O[C@@H](c3c(OC(C)=O)cc4oc(-c5ccc(OC(C)=O)c(OC(C)=O)c5)cc(=O)c4c3OC(C)=O)[C@H](OC(C)=O)[C@@H](OC(C)=O)[C@@H]2OC(C)=O)[C@H](OC(C)=O)[C@@H](OC(C)=O)[C@@H]1OC(C)=O` showed an Activity (Platelet [24]) of 80.5% and an Activity (Platelet [25]) of 79.9%.

For `O=c1cc(-c2ccc(O)cc2)oc2cc(O)c([C@@H]3O[C@H](CO[C@@H]4O[C@H](CO)[C@@H](O)[C@H](O)[C@H]4O)[C@@H](O)[C@H](O)[C@H]3O)c(O)c12`, the Activity (Platelet [1]) was 84.9%, the Activity (Platelet [2]) was 85.6% and the Activity (Platelet [3]) was 87.4%. The Activity (Platelet [4]) was 84.6%.

Molecule `O=c1cc(-c2ccc(O)c(O)c2)oc2cc(O[C@@H]3O[C@H](CO)[C@@H](O)[C@H](O)[C@H]3O)cc(O)c12` [GALUTEOLIN] has an Activity (Platelet [1]) of 80.2%, an Activity (Aorta [26]) of 93.4% and an Activity (Platelet [2]) of 80.5%. The Activity (Platelet [3]) was 87%, the Activity (Platelet [4]) was 71.9% and the Activity (Aorta [27]) was 84.5%. The Activity (Aorta [28]) was 88.2%.

Work on `CC(=O)Oc1ccccc1C(=O)O` [ASPIRIN] yielded an Activity (Platelet [29]) of 90.5%, an Activity (Platelet [30]) of 0% and an Activity (Platelet [31]) of 85.4%. It also gave an Activity (Platelet [32]) of 91.9%.

`O=c1cc(-c2ccc(O)cc2)oc2cc(O)c([C@@H]3O[C@H](CO)[C@@H](O)[C@H](O)[C@H]3O)c(O)c12` [ISOVITEXIN] showed an Activity (Platelet [1]) of 85.1%, an Activity (Platelet [2]) of 84.7% and an Activity (Platelet [3]) of 36.5%. It also gave an Activity (Platelet [4]) of 83.9%.

Work on `O=c1cc(-c2ccc(O)c(O)c2)oc2cc(O)c([C@@H]3O[C@H](CO)[C@@H](O)[C@H](O)[C@H]3O)c(O)c12` [ISOORIENTIN] yielded an Activity (Platelet [1]) of 66.9%, an Activity (Aorta [26]) of 106% and an Activity (Platelet [2]) of 60.8%. It also gave an Activity (Platelet [3]) of 85.5%, an Activity (Platelet [4]) of 77.1% and an Activity (Aorta [27]) of 91.7%. For the same molecule, the Activity (Aorta [28]) was 86.6%.

In the case of `CC(=O)OC[C@H]1O[C@@H](c2c(OC(C)=O)cc3oc(-c4ccc(OC(C)=O)c(OC(C)=O)c4)cc(=O)c3c2OC(C)=O)[C@H](OC(C)=O)[C@@H](OC(C)=O)[C@@H]1OC(C)=O` [ISOORIENTIN PERACETATE], the Activity (Platelet [1]) is reported as 72.4%, the Activity (Platelet [2]) is reported as 68.6% and the Activity (Platelet [3]) is reported as 79%. For the same molecule, the Activity (Platelet [4]) was 74.7%.
